Values of other authors, collected in patent US20050197398A1, “Therapeutic agent for hepatic disease” (AJINOMOTO CO., INC, priority 2002, published 2005).

Columns and labels:
[1] = tested on: rat primary culture hepatocytes; conditions: D-galactosamine loading
[2] = tested on: D-galactosamine-induced liver failure rat model

SMILES: C[C@H](N)C(=O)O [alanine]
- lactic dehydrogenase extracellular overflow [1]: suppress an increase of lactic dehydrogenase extracellular overflow
- liver failure [2]: improves liver failure
- level of ATP ([2]; ATP becomes lower in liver failure): raises the level of ATP
